Test results reported in US11096985B2, “Antimicrobial peptides, their variants and uses” (priority 2015, dated 2021).
Where a SMILES comes first, the peptide text is derived from it. [ ]: non-standard residue; d: D form.

Legend:
[1] = system: clinical strains of Escherichia coli; experiment: MIC, clinical strains of E. coli; assay type: cell-based; design: unit: μg/ml; conditions: microdilution, Muller Hinton broth-cation adjusted, 0.02% BSA, 0.2% acetic acid
Outline: (§1)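 MIC = lowest peptide concentration showing no visual growth after 20–24 h at 37° C. Range 0.125–128 μg/ml; bacteria at 5.0×10^5 cfu/ml in MH broth, polypropylene microdilution format; yeasts in potato dextrose broth.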

[2] = system: clinical strains of Klebsiella pneumoniae; experiment: MIC, clinical strains of K. pneumoniae; assay type: cell-based; design: unit: μg/ml; conditions: microdilution, Muller Hinton broth-cation adjusted, 0.02% BSA, 0.2% acetic acid
Outline: as §1

[3] = system: clinical strains of Pseudomonas aeruginosa; experiment: MIC, clinical strains of P. aeruginosa; assay type: cell-based; design: unit: μg/ml; conditions: microdilution, Muller Hinton broth-cation adjusted, 0.02% BSA, 0.2% acetic acid
Outline: as §1

[4] = system: clinical strains of Serratia marcescens; experiment: MIC, clinical strains of Serratia marcescens; assay type: cell-based; design: unit: µg/mL; conditions: microdilution, Muller Hinton broth-cation adjusted, 0.02% BSA, 0.2% acetic acid
Outline: as §1

[5] = system: clinical strains of Proteus mirabilis; experiment: MIC, clinical strains of Proteus mirabilis; assay type: cell-based; design: unit: µg/mL; conditions: microdilution, Muller Hinton broth-cation adjusted, 0.02% BSA, 0.2% acetic acid
Outline: as §1

[6] = system: clinical strains of Enterobacter cloacae; experiment: MIC, clinical strains of Enterobacter cloacae; assay type: cell-based; design: unit: μg/ml; conditions: microdilution, Muller Hinton broth-cation adjusted, 0.02% BSA, 0.2% acetic acid
Outline: as §1

[7] = system: clinical strains of Staphylococcus aureus; experiment: MIC, clinical strains of S. aureus; assay type: cell-based; design: unit: μg/ml; conditions: microdilution, Muller Hinton broth-cation adjusted, 0.02% BSA, 0.2% acetic acid
Outline: as §1

[8] = system: clinical strains of Streptococcus pneumoniae; experiment: MIC, clinical strains of Streptococcus pneumoniae; assay type: cell-based; design: unit: µg/mL; conditions: microdilution, Muller Hinton broth-cation adjusted, 0.02% BSA, 0.2% acetic acid
Outline: as §1

[9] = system: clinical strains of Candida albicans; experiment: MIC, clinical yeast strains, Candida albicans; assay type: cell-based; design: unit: μg/ml
Outline: as §1

[10] = system: clinical strains of C. glabrata; experiment: MIC, clinical yeast strains, C. glabrata; assay type: cell-based, Candida glabrata; design: unit: μg/ml
Outline: as §1

[11] = system: clinical strains of C. parapsilosis; experiment: MIC, clinical yeast strains, C. parapsilosis; assay type: cell-based, Candida parapsilosis; design: unit: μg/ml
Outline: as §1

[12] = system: clinical strains of C. quillermondiae; experiment: MIC, clinical yeast strains, C. quillermondiae; assay type: cell-based; conditions: C. quillermondiae clinical yeast strain 1
Outline: as §1

For `CC[C@@H](C)[C@@H](N)C(=O)N[C@H](Cc1c[nH]c2ccccc12)C(=O)N[C@H](CCCCN)C(=O)N[C@H](CCCNC(=N)N)C(=O)N[C@H](Cc1ccccc1)C(=O)N[C@H](CCCNC(=N)N)C(=O)N[C@H](CC(C)C)C(=O)N[C@H](Cc1ccccc1)C(=O)N[C@H](CCCCN)C(=O)N[C@H](CCCCN)C(=O)N[C@H](Cc1c[nH]c2ccccc12)C(=O)O` [Chain304D] (H-[dI][dW][dK][dR][dF][dR][dL][dF][dK][dK][dW]-OH), the Minimum inhibitory concentration ([1]; Escherichia coli clinical strain 1) was 1, the Minimum inhibitory concentration ([1]; Escherichia coli clinical strain 2) was 16 and the Minimum inhibitory concentration ([1]; Escherichia coli clinical strain 3) was 16. The Minimum inhibitory concentration ([1]; Escherichia coli clinical strain 4) was 32, the Minimum inhibitory concentration ([1]; Escherichia coli clinical strain 5) was 32 and the Minimum inhibitory concentration ([2]; Klebsiella pneumoniae clinical strain 1) was over 128. For the same compound, the Minimum inhibitory concentration ([2]; Klebsiella pneumoniae clinical strain 2) was over 128, the Minimum inhibitory concentration ([2]; Klebsiella pneumoniae clinical strain 3) was over 128 and the Minimum inhibitory concentration ([2]; Klebsiella pneumoniae clinical strain 4) was over 128. For the same compound, the Minimum inhibitory concentration ([2]; Klebsiella pneumoniae clinical strain 5) was 64, the Minimum inhibitory concentration ([3]; Pseudomonas aeruginosa clinical strain 1) was 32 and the Minimum inhibitory concentration ([3]; Pseudomonas aeruginosa clinical strain 2) was 64. The Minimum inhibitory concentration ([3]; Pseudomonas aeruginosa clinical strain 3) was 64, the Minimum inhibitory concentration ([3]; Pseudomonas aeruginosa clinical strain 4) was 64 and the Minimum inhibitory concentration ([3]; Pseudomonas aeruginosa clinical strain 5) was 16. For the same compound, the Minimum inhibitory concentration ([4]; Serratia marcescens clinical strain 1) was over 128, the Minimum inhibitory concentration ([4]; Serratia marcescens clinical strain 2) was over 128 and the Minimum inhibitory concentration ([4]; Serratia marcescens clinical strain 3) was over 128. It also gave a Minimum inhibitory concentration ([4]; Serratia marcescens clinical strain 4) of over 128, a Minimum inhibitory concentration ([4]; Serratia marcescens clinical strain 5) of over 128 and a Minimum inhibitory concentration ([5]; Proteus mirabilis clinical strain 1) of over 128. It also gave a Minimum inhibitory concentration ([5]; Proteus mirabilis clinical strain 2) of over 128, a Minimum inhibitory concentration ([5]; Proteus mirabilis clinical strain 3) of over 128 and a Minimum inhibitory concentration ([5]; Proteus mirabilis clinical strain 4) of over 128. The Minimum inhibitory concentration ([5]; Proteus mirabilis clinical strain 5) was over 128, the Minimum inhibitory concentration ([6]; Enterobacter cloacae clinical strain 1) was 64 and the Minimum inhibitory concentration ([6]; Enterobacter cloacae clinical strain 2) was 64. For the same compound, the Minimum inhibitory concentration ([6]; Enterobacter cloacae clinical strain 3) was 128, the Minimum inhibitory concentration ([6]; Enterobacter cloacae clinical strain 4) was 128 and the Minimum inhibitory concentration ([6]; Enterobacter cloacae clinical strain 5) was 32. It also gave a Minimum inhibitory concentration ([7]; Staphylococcus aureus clinical strain 1) of 32, a Minimum inhibitory concentration ([7]; Staphylococcus aureus clinical strain 2) of 32 and a Minimum inhibitory concentration ([7]; Staphylococcus aureus clinical strain 3) of 16. It also gave a Minimum inhibitory concentration ([7]; Staphylococcus aureus clinical strain 4) of 16, a Minimum inhibitory concentration ([7]; Staphylococcus aureus clinical strain 5) of 16 and a Minimum inhibitory concentration ([8]; Streptococcus pneumoniae clinical strain 1) of 128. For the same compound, the Minimum inhibitory concentration ([8]; Streptococcus pneumoniae clinical strain 2) was 128, the Minimum inhibitory concentration ([8]; Streptococcus pneumoniae clinical strain 3) was 128 and the Minimum inhibitory concentration ([8]; Streptococcus pneumoniae clinical strain 4) was 128. For the same compound, the Minimum inhibitory concentration ([8]; Streptococcus pneumoniae clinical strain 5) was 64, the Minimum inhibitory concentration ([9]; Candida albicans clinical yeast strain 1) was 16 and the Minimum inhibitory concentration ([9]; Candida albicans clinical yeast strain 2) was 16. It also gave a Minimum inhibitory concentration ([9]; Candida albicans clinical yeast strain 3) of 16, a Minimum inhibitory concentration ([9]; Candida albicans clinical yeast strain 4) of 16 and a Minimum inhibitory concentration ([9]; Candida albicans clinical yeast strain 5) of 32. The Minimum inhibitory concentration ([10]; C. glabrata clinical yeast strain 1) was 16, the Minimum inhibitory concentration ([10]; C. glabrata clinical yeast strain 2) was 16 and the Minimum inhibitory concentration ([10]; C. glabrata clinical yeast strain 3) was 8. The Minimum inhibitory concentration ([10]; C. glabrata clinical yeast strain 4) was 64, the Minimum inhibitory concentration ([11]; C. parapsilosis clinical yeast strain 1) was 64 and the Minimum inhibitory concentration ([11]; C. parapsilosis clinical yeast strain 2) was 64. It also gave a Minimum inhibitory concentration ([11]; C. parapsilosis clinical yeast strain 3) of 32, a Minimum inhibitory concentration ([11]; C. parapsilosis clinical yeast strain 4) of 16 and a Minimum inhibitory concentration [12] of 16.
